Key:
[1] = molecular target: GSK3β (Glycogen synthase kinase-3 beta) (Homo sapiens, UniProt P49841); assay: Assay 6 GSK3β assay (ThermoFisher Z-Lyte FRET); format: biochemical; conditions: ATP Conc: 10 μM, geometric mean; read-out: Assay 6 (GSK3β FRET-Z-Lyte Cr) GMean IC50
Method: This assay measures the activity of the compounds at GSK33 (Glycogen synthase kinase-3 beta).
The test compounds were screened in 1% DMSO (final) in the well. For 10 point titrations, 3-fold serial dilutions are conducted from the starting concentration of 10 PM.
Bar-coded Corning, low volume NBS, black 384-well plate • 1. 2.5 μL—4× Test Compound or 100 nL 100× plus 2.4 μL kinase buffer • 2. 5 μL—2× Peptide/Kinase Mixture • 3. 2.5 μL—4×ATP Solution • 4. 30-second plate shake • 5. 60-minute Kinase Reaction incubation at room temperature • 6. 5 μL—Development Reagent Solution • 7. 30-second plate shake • 8. 60-minute Development Reaction incubation at room temperature • 9. Read on fluorescence plate reader and analyse the data
In step 2, the 2×GSK3β (GSK3 beta)/Ser/Thr (Glycogen synthase kinase-3 beta/Serine/Threonine) 09 mixture is prepared in 50 mM HEPES (4-(2-hydroxyethyl)-1-piperazineethanesulfonic acid) pH 7.5, 0.01% BRIJ-35, 10 mM MgCl2, 1 mM EGTA (egtazic acid). The final 10 μL Kinase Reaction consists of 0.22-0.92 ng GSK3β (GSK3 beta) and 2 PM Ser/Thr 09 in 50 mM HEPES pH 7.5, 0.01% BRIJ-35, 10 mM MgCl2, 1 mM EGTA.
In step 3 the ATP Solution is diluted to a 4× working concentration in Kinase Buffer (50 mM HEPES pH 7.5, 0.01% BRIJ-35, 10 mM MgCl2, 1 mM EGTA).
In Step 6 the Development Reagent is diluted 1:512 in Development Buffer (10× Novel PKC Lipid Mix: 2 mg/mL Phosphatidyl Serine, 0.2 mg/mL DAG in 20 mM HEPES, pH 7.4, 0.3% CHAPS).
SelectScreen® Kinase Profiling Service uses XLfit from IDBS. The dose response curve is curve fit to model number 205 (sigmoidal dose-response model).

[2] = molecular target: PCSK9 (Homo sapiens, UniProt Q8NBP7, G670E/V474I); assay: biochemical
[3] = molecular target: T1, potassium ion channel hERG (Homo sapiens, UniProt Q12809); assay: Assay 5 hERG assay (patch clamp, CHO cells over-expressing hERG); format: cell-based; conditions: SyncroPatch 384PE, room temperature, geometric mean, read-out: Assay 5 (hERG Hu CHO if EPh CR-Syncro) GMean IC50
T1 construct: expressed in transfected cells; host or cells: Chinese hamster ovary K1 (CHO)
Method: This assay (human Ether-d-go-go-Related Gene) measures activity of the compounds at the potassium ion channel hERG (human Ether-d-go-go-Related Gene).
Experiments were performed on the SyncroPatch 384PE high throughput patch clamp platform at room temperature and medium resistance chips with 4 patch holes per site. Chinese hamster ovary K1 (CHO) cell lines over-expressing the ion channel of choice (hERG) were used in assay-ready format and kept in liquid nitrogen or were used from live culture. Cells were either thawed and diluted in HBSS or were detached from flasks and resuspended in HBSS. HBSS comprised 140 mM NaCl, 4 mM KCl, 10 mM HEPES and 5 mM Glucose (pH7.4). The internal patch clamp solution was KF 120 mM, KCl 20 mM, HEPES 10 mM, EGTA 10 mM, and 25 PM Escin (pH 7.2). After the sealing process was complete, the external solution was exchanged for external patch clamp solution comprising NaCl 80 mM, KCl 4 mM, HEPES 10 mM, CaCl2 2 mM, MgCl2 1 mM, glucose 5 mM, and NMDG 60 mM (pH 7.4). All solutions were stored at room temperature, except Escin, which was stored at 4° C. All test compounds were dispensed in greiner-bio 384 well plates and tested in a 6 point cumulative assay (final DMSO concentration 0.33%). Only wells that passed previously agreed acceptance criteria for this platform were used in this analysis (30 MegaOhm seal resistance, Z prime >0.4 and current size >0.2 nA). […]

T1 sequence (Q12809 whole entry): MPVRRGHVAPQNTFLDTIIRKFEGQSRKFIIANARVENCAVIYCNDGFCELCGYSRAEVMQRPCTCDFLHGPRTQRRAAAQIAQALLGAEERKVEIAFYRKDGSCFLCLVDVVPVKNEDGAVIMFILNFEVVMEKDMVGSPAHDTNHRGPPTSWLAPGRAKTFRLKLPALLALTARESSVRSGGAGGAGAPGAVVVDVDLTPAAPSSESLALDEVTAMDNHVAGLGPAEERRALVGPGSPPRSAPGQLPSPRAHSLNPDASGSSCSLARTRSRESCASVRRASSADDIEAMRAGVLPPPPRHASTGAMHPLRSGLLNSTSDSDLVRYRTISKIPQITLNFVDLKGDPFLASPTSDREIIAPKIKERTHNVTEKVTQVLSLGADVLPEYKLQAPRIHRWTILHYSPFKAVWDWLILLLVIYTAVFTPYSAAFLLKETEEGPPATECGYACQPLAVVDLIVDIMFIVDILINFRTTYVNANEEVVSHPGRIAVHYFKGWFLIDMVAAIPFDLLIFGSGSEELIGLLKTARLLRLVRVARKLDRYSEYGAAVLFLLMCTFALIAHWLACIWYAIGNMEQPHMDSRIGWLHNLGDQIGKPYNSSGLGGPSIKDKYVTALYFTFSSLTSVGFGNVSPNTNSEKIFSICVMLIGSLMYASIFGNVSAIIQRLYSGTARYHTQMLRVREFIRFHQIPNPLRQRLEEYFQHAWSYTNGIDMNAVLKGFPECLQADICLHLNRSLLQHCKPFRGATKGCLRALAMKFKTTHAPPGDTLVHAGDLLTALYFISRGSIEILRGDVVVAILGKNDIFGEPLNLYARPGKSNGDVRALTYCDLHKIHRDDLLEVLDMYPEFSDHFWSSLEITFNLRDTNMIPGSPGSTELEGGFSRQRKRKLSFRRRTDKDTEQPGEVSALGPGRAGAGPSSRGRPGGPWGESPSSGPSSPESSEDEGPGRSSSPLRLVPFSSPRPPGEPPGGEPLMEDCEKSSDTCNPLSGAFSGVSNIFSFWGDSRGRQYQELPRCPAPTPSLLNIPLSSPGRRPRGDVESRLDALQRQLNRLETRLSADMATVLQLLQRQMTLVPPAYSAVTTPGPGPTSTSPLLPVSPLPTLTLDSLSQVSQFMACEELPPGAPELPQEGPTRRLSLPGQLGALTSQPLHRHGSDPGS
Chain of GSK3β (Glycogen synthase kinase-3 beta) (P49841 whole entry): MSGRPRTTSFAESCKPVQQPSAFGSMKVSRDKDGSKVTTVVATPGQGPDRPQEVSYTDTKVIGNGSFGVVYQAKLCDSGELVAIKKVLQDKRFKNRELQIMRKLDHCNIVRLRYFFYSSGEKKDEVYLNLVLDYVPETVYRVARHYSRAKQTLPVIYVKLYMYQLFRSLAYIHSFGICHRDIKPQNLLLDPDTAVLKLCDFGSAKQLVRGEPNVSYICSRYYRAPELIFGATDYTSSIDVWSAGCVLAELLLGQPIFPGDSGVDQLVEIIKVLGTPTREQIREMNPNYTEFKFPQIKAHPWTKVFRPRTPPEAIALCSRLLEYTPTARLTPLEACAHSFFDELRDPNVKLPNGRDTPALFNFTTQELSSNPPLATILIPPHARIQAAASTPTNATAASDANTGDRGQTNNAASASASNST
Chain of PCSK9 (Q8NBP7 with tags, fused parts or gaps V474I/G670E): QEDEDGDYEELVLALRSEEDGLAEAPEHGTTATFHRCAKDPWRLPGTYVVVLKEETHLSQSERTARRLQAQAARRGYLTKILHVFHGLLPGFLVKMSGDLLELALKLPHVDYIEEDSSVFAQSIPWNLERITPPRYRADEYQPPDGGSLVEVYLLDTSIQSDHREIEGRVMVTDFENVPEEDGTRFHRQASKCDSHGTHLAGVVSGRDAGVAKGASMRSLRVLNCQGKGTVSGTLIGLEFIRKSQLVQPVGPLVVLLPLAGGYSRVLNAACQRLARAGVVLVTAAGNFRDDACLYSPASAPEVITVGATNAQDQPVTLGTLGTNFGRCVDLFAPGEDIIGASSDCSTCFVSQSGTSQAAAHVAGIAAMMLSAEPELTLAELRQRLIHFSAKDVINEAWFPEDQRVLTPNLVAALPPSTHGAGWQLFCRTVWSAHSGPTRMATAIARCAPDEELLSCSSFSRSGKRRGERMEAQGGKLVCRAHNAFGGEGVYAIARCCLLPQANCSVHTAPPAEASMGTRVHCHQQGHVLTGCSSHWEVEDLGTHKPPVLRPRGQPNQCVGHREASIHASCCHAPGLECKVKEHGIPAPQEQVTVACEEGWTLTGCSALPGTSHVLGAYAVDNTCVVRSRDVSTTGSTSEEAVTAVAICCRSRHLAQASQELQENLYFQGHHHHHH

Compound | IC50 [1] [µM] | IC50 [2] [nM] | IC50 [3] [µM]
COc1cccnc1-c1ccc(N[C@H]2CC[C@H](Nc3ncc(C)nn3)C2)nc1 [Example 304, (1S,3S)—N′-(3-Methoxy-[2,3′-bipyridin]-6′-yl)-N^3-(6-methyl-1,2,4-triazin-3-yl)cyclopentane-1,3-diamine] | > 10 | 96 | > 40.1
Cc1cnc(N[C@H]2CC[C@H](Nc3ccc(-c4ncccc4C)cn3)C2)nn1 [Example 248] | > 10 | 13 | > 40.1
COc1ccccc1-c1ccc(N[C@H]2CC[C@H](Nc3ncc(C)nn3)C2)nc1 [Example 306, (1S,3S)—N′-(5-(2-Methoxyphenyl)pyridin-2-yl)-N^3-(6-methyl-1,2,4-triazin-3-yl)cyclopentane-1,3-diamine] | > 10 | 302 | 4.5
Cc1cnc(NCC(CCO)CNc2ccc(-n3c(=O)ccc4ccccc43)cn2)nn1 (racemic) [Example 318, rac-1-(6-((4-Hydroxy-2-(((6-methyl-1,2,4-triazin-3-yl)amino)methyl)butyl)amino)pyridin-3-yl)quinolin-2(1H)-one] |  | 284 | > 40
N#Cc1ccc(F)c(-c2ccc(N[C@H]3CC[C@H](Nc4ncc(C5CC5)nn4)C3)nc2)n1 [Example 61, 6′-(((1S,3S)-3-((6-Cyclopropyl-1,2,4-triazin-3-yl)amino)cyclopentyl)amino)-3-fluoro-[2,3′-bipyridine]-6-carbonitrile] | > 10 | 184 | 5.6
Cn1cccc(-c2ccc(N[C@H]3CC[C@H](Nc4ncc(C5CC5)nn4)C3)nc2)c1=O [Example 60, 6′-(((1S,3S)-3-((6-Cyclopropyl-1,2,4-triazin-3-yl)amino)cyclopentyl)amino)-1-methyl-[3,3′-bipyridin]-2(1H)-one] | > 10 | 9.1 | 21
C#CCN(C)C(=O)c1cnc(N[C@H]2CC[C@H](Nc3ccc(-n4ccccc4=O)cn3)C2)nn1 [Example 152, N-Methyl-3-(((1S,3S)-3-((2-oxo-2H-[1,3′-bipyridin]-6′-yl)amino)cyclopentyl)amino)-N-(prop-2-yn-1-yl)-1,2,4-triazine-6-carboxamide] | > 10 | 244 | > 40.1
Cc1cnc(N[C@H]2CC[C@H](Nc3ccc(-n4nc(C)nc4C)cn3)C2)nn1 [Example 313, (1S,3S)—N^1-(5-(3,5-dimethyl-1H-1,2,4-triazol-1-yl)pyridin-2-yl)-N^3-(6-methyl-1,2,4-triazin-3-yl)cyclopentane-1,3-diamine] | > 10 | 16 | > 40.1
Cc1cnc(NCC(CCO)CNc2ccc(-n3c(=O)n(C)c4ccccc43)cn2)nn1 (racemic) [Example 321, rac-1-(6-((4-Hydroxy-2-(((6-methyl-1,2,4-triazin-3-yl)amino)methyl)butyl)amino)pyridin-3-yl)-3-methyl-1,3-dihydro-2H-benzo[d]imidazol-2-one] |  | 297 | > 40
COc1c(-c2nnn[nH]2)ccc(F)c1-c1ccc(N[C@H]2CC[C@H](Nc3ncc(C4CC4)nn3)C2)nc1 [Example 169, (1S,3S)—N^1-(6-Cyclopropyl-1,2,4-triazin-3-yl)-N^3-(5-(6-fluoro-2-methoxy-3-(1H-tetrazol-5-yl)phenyl)pyridin-2-yl)cyclopentane-1,3-diamine] | 0.31 | 27 | > 40.1
COc1cccc(F)c1-c1ccc(N[C@H]2CC[C@H](Nc3ncc(C4CC4)nn3)C2)nc1 [Example 54] | > 10 |  | 4.3
Fc1cccc(F)c1-c1ccc(N[C@H]2CC[C@H](Nc3ncc(C4CC4)nn3)C2)nc1 [Example 53] | > 10 |  | 3.4
CCSc1cnc(N[C@H]2CC[C@H](Nc3ccc(-n4ccccc4=O)cn3)C2)nn1 [Example 258, 6′-(((1S,3S)-3-((6-(Ethylthio)-1,2,4-triazin-3-yl)amino)cyclopentyl)amino)-2H-[1,3′-bipyridin]-2-one] | 0.237 | 15 | 26.1
COc1cccc(-c2ccc(N[C@H]3CC[C@H](Nc4ncc(C)nn4)C3)nc2)n1 [Example 305, (1S,3S)—N′-(6-Methoxy-[2,3′-bipyridin]-6′-yl)-N^3-(6-methyl-1,2,4-triazin-3-yl)cyclopentane-1,3-diamine] | > 10 | 91 | 3.2
Cc1cnc(NCC(CCO)CNc2ccc(-n3c(=O)ccc4cccnc43)cn2)nn1 (racemic) [Example 320, rac-1-(6-((4-Hydroxy-2-(((6-methyl-1,2,4-triazin-3-yl)amino)methyl)butyl)amino)pyridin-3-yl)-1,8-naphthyridin-2(1H)-one] |  | 559 | > 40
Cc1cnc(N[C@H]2CC[C@H](Nc3ccc(-n4c(C)nc(C)c4C#N)cn3)C2)nn1 [Example 250, 2,4-Dimethyl-1-(6-(((1S,3S)-3-((6-methyl-1,2,4-triazin-3-yl)amino)cyclopentyl)amino)pyridin-3-yl)-1H-imidazole-5-carbonitrile] | > 10 | 108 | > 40.1
Cn1cccc(-c2cnc(N[C@H]3CC[C@H](Nc4ncc(C5CC5)nn4)C3)nc2)c1=O [Example 115, 3-(2-(((1S,3S)-3-((6-Cyclopropyl-1,2,4-triazin-3-yl)amino)cyclopentyl)amino)pyrimidin-5-yl)-1-methylpyridin-2(1H)-one] | > 10 | 17 | > 40
Cc1cnc(N[C@H]2CC[C@H](Nc3ccc(-n4nc(C)cc4C)cn3)C2)nn1 [Example 249] | > 10 | 16 | > 40.1
CC(=O)c1cnc(N[C@H]2CC[C@H](Nc3ccc(-n4ccccc4=O)cn3)C2)nn1 [Example 260, 6′-(((1S,3S)-3-((6-Acetyl-1,2,4-triazin-3-yl)amino)cyclopentyl)amino)-2H-[1,3′-bipyridin]-2-one] | 1.32 | 101 | > 40
COc1c(C(=O)O)ccc(F)c1-c1ccc(N[C@H]2CC[C@H](Nc3ncc(C4CC4)nn3)C2)nc1 [Example 167, 3-(6-(((1S,3S)-3-((6-Cyclopropyl-1,2,4-triazin-3-yl)amino)cyclopentyl)amino)pyridin-3-yl)-4-fluoro-2-methoxybenzoic acid] | > 10 |  | > 40.1
Cc1cnc(NCC(CCO)CNc2ccc(-n3c(=O)n(C)c4cccnc43)cn2)nn1 (racemic) [Example 319, rac-3-(6-((4-Hydroxy-2-(((6-methyl-1,2,4-triazin-3-yl)amino)methyl)butyl)amino)pyridin-3-yl)-1-methyl-1,3-dihydro-2H-imidazo[4,5-b]pyridin-2-one] |  | 705 | > 40
Cc1ccc(=O)n(-c2ccc(NCC(CCO)CNc3ncc(C)nn3)nc2)c1 (racemic) [Example 316, rac-6′-((4-Hydroxy-2-(((6-methyl-1,2,4-triazin-3-yl)amino)methyl)butyl)amino)-5-methyl-2H-[1,3′-bipyridin]-2-one] |  | 7430 | > 40
COc1c(C#N)ccc(F)c1-c1ccc(N[C@H]2CC[C@H](Nc3ncc(C4CC4)nn3)C2)nc1 [Example 168, 3-(6-(((1S,3S)-3-((6-Cyclopropyl-1,2,4-triazin-3-yl)amino)cyclopentyl)amino)pyridin-3-yl)-4-fluoro-2-methoxybenzonitrile] | > 10 |  | 3.1

— patent US20240228469A1, “PCSK9 INHIBITORS AND METHODS OF USE THEREOF” (AstraZeneca AB, priority 2022, published 2024)
